Reference: US8367645B2, “Compositions and methods for treating hyperproliferative diseases” (priority 2008, dated 2013)
Marks after values point to notes of the source that are not given here.

How the values were obtained:
[1] = tested on: transplanted human hepatoma (Hep G2 cells); experiment: Volume of transplanted human hepatoma (Hep G2) in hairless mice; type: in vivo
Procedure: The procedures for performing this test were as follows. Hep G2 cells were prepared at 25*10^6 cells/ml and 0.2 ml of the cell suspension (5*10^6 cells) was injected in an exposed mouse mammary fat pad. When tumors achieved the required size (0.5 cm^3), animals would be treated with 50 μl of B10, dehydrated alcohol or 10% glucose solution once daily for 6 days. During 12 days after the last injection, tumor volume will be assessed by measuring tumor dimensions (long (L) and short (S)) and estimated it as V=0.52*L*S^2. 12 days after the last injection, mice would be sacrificed and tumors would be dissected, weighed and stored in a formaline solution for further evaluation.).

[2] = tested on: B16 (mice melanoma cells); details: metformin 5 mM alone or in combination
Procedure: Each of the cell samples were then tested in a flow cytometer. The testing methodology and equipment used are set forth as follows. Cells were harvested and washed twice with phosphate buffered saline, (PBS) and fixed in 70% cold ethanol at 4° C. overnight. Before analysis, cells were washed twice with PBS, containing 1% bovine serum albumin (BSA), then resuspended with 400 μl PBS and treated with 100 μg/ml RNase A (Roche Diagnostics) and 50 μg/ml propidium iodide (PI) (Sigma). After incubation for 30 min at 37° C., the cells were subjected to DNA content analysis. propidium iodide, (PI) fluorescence was analyzed with a FACS calibur flowcytometer, (Becton Dickinson). Data from at least 10,000 cells were analyzed with software.
In Example 5, Metformin 5 mM; Metformin 5 mM+aspirin 2 mM; and Metformin 5 mM+aspirin 2 mM+serotonin creatinine sulfate complex 0.001 mM were tested to determine the effect on cell cycle on B16 (mice melanoma cells) during the G1, S and G2 cell phases. The procedure for testing using the flow cytometer was carried out as set forth in Example 1 above.

Row | SMILES | rate of elimination of hepatoma volume [1] [%] | Volume After Treatment ([1]; Hep G2 tumor, 50 μl once daily for 6 days, 10% G.S. 444 ± 199) | Volume Before Treatment ([1]; Hep G2 tumor, before treatment) | Volume Changes ([1]; Hep G2 tumor, ↓ = decrease, 10% G.S. ↑158%) | S ([2]; control 12.8) | G2 ([2]; control 23.1) | G1 ([2]; control 64)
1 | CCO [Dehydration ethanol] | 52.7 | 89 ± 120** | 188 ± 119 | ↓52.7% |  |  | 
2 | CN(C)C(=N)N=C(N)N [Metformin] |  |  |  |  | 4.6 | 23.6 | 71.8
